# Test results published in US20090318479A1, “SUBSTITUTED RING FUSED AZINES AND THEIR USE IN CANCER THERAPY” (Auckland Uniservices Limited, priority 2006, published 2009).
# Like-named read-outs stand apart in the source and are kept apart here.
# Key:
# [1] = tested on: Saos-2 osteosarcoma cells; conditions: cited from earlier work
# [2] = tested on: A375.S2 melanoma (mutated at p53 position 249); conditions: A375.S2 melanoma cells in nude mice; cited from earlier work
# [3] = tested on: DLD-1 colon carcinoma (mutated at p53 position 241); conditions: DLD-1 colon carcinoma cells in nude mice; cited from earlier work
# [4] = background statement; cited from earlier work
# [5] = tested on: NZOV11 human ovarian cell line; assay: restoration of p53 function: G1-phase arrest after irradiation plus paclitaxel, flow cytometry; assay type: cell-based; conditions: 9 Gray plus 200 nM paclitaxel, 24 hours; for AC50: NZOV11, p53 mutated at position 248, G1 proportion restored to (a+b)/2, read-out: AC-50% (concentration of drug that restores the G1-phase proportion of the cultured cells); for Activity: NZOV11, p53 mutated at position 248 (arginine to glutamine)
# Source text: Description of the in vitro assay: This protocol employs a novel assay that was used to measure the restoration of one of the principal p53 functions, that of regulating entry into S-phase (DNA replication) of the cell division cycle. Without being bound to any specific understanding, it is thought that these compounds may act to restore the known ability of p53 to induce cell cycle arrest in the G1-phase of the cell division cycle through induction of the p21^WAF1 protein in response to DNA damage (Levine. Cell 1997, 88, 323-31). Logarithmic phase cultures of tumour cell lines are irradiated in the presence of an inhibitor of cell division (to prevent the generation of G1-phase cells by cell division), and then allowed to grow for approximately one cell division time. If p53 function is present it will inhibit the progression of cells from the G1-phase to the S-phase of the cell division cycle, as a consequence of induction of the p21^WAF1 protein. If p53 function is absent there will be little or no cells in the G1-phase of the cell division cycle at the end of the incubation. […] The ability of an individual drug to restore p53 function is therefore evaluated against a positive control of non-irradiated cells and a negative control of cells that have been treated with a combination of radiation and a mitotic inhibitor.
# Logarithmic phase cultures of tumour cell lines are plated in insulin-transferrin-selenite growth medium on 100 mm plates (10 ml) at a density of 10^4 cells/ml, using the standard cell culture conditions that are established in this laboratory (Marshall et al., Oncol Res 1994, 5, 301-9). The test compound is added to some cultures at a range of concentrations up to 20 μM. The anticancer drug paclitaxel is used as an inhibitor of cell division and is added to some cultures at a concentration of 200 nM. Cultures are irradiated where indicated at a dose of 9 Gray. Following irradiation, cultures are incubated at 37° C. for 24 hours, the cells harvested, washed once and fixed overnight in 100% methanol at −20° C. at a density of 5×10^5 cells/ml. Cells are rehydrated by washing in phosphate buffered saline with 2% foetal bovine serum, then incubated with RNAase A (0.25 mg/ml) at 37° C. for 30 min. Cells are then washed and resuspended in phosphate buffered saline containing 0.1 mM EDTA and 25 μg/ml propidium iodide. Cycle analysis (red fluorescence) is performed using a Becton Dickinson (Mountain View, Calif.) FACScan flow cytometer. Cellular DNA content profiles are analyzed using Modfit software (Verity Software House, Inc.) to provide estimates of the proportions of G1-, S- and G2/M-phase cells, and of other cellular material. By comparing the effects of irradiation and addition of paclitaxel separately, the assay provides evidence of non-specific inhibition of cell growth from changes in cell number, cell cycle distribution, and production of cellular debris.
# Using cell cultures that have been both irradiated and treated with paclitaxel, the proportion of cells in G1-phase is plotted against the concentration of added test compound. Depending on the cell line, the proportion of G1-phase cells in the absence of added compound is generally less than 5% (defined as a). […] The 50%-activating concentration (AC-50%) of the test compound is defined as the concentration that restores the G1-phase proportion of the cultured cells to a value of (a+b)/2.
# The NZOV11 human ovarian cell line, previously developed in this laboratory according to methods that have previously been published (Baguley B C et al., Eur J Cancer 1998, 34, 1086), was used in these studies to compare the activity of each of the drugs.
# [6] = tested on: other cell lines with mutations in other parts of the p53 protein; assay: restoration of p53 function in other cell lines with other p53 mutations; assay type: cell-based; conditions: a number of other cell lines with mutations in other parts of the p53 protein
# C57Bl mice = assay: maximum tolerated intraperitoneal single dose and signs of toxicity in mice; assay type: in vivo
# Experimental: (§1) Pharmacological studies in mice: A further consideration in this project is whether effective plasma concentrations can be achieved in vivo without significant side-effects. C57Bl mice were maintained under standard conditions in accordance with institutional ethical guidelines. The maximum tolerated intraperitoneal single dose of compound 3 was determined by administering different doses of drug to mice and found to be 100 mg/kg. […] An effective analytical procedure for the determination of concentrations of 3 in mouse plasma was developed, using high performance liquid chromatography and detection by ion trap mass spectrometry. The method is broadly applicable to compounds in the series. Blood samples were obtained under terminal anesthesia either before or at 1, 2 and 4 hours after a single intraperitoneal dose of 100 mg/kg. Plasma was prepared and analyzed using the method developed above.
# [7] = plasma concentrations after a single intraperitoneal dose; assay type: in vivo; conditions: C57Bl mice, single intraperitoneal 100 mg/kg, 1, 2 and 4 hours, FIG. 1
# Experimental: Illustrates the in vivo plasma concentrations of compound 3 over time following a single intraperitoneal administration (100 mg/kg) to C57Bl mice.
# as §1
# [8] = tested on: NZM4 human tumour xenografts; assay: growth of NZM4 human tumour xenografts in immunodeficient (rag 1) mice; assay type: in vivo
# Experimental: Illustrates the growth curves for immunodeficient mice with NZM4 human tumour xenografts. Mice were either untreated (closed circles), treated with 2 Gray radiation alone (open circles) or treated with radiation combined with compound 3 (100 mg/kg per dose).
# In vivo estimation of ability to restore p53 function: A further consideration in this project is to determine whether members of this series have the ability to inhibit the growth of human cell lines that contain mutant p53 protein. This consideration was addressed with the use of compound 3, for which in vitro evidence has been obtained for ability to restore p53 function (Table 2) and for which pharmacological evidence has been obtained for biologically relevant plasma concentrations in vivo in the absence of significant side-effects (FIG. 1). Immunodeficient (rag 1) mice were maintained under standard conditions in accordance with institutional ethical guidelines. Cells from the NZM4 cell line (Marshall E S et al., Eur J Cancer 1994; 30A: 1370-1376) were grown in culture and harvested. Mice were injected subcutaneously with 10^7 cells and tumours allowed to grow to a diameter of approximately 5 mm. Mice received whole-body irradiation of 2 Gray and were then administered compound 3 by intraperitoneal injection immediately after, and 1 and 2 days following, irradiation. […] Control animals received no treatment or were irradiated in the absence of drug administration.
# Tumour growth was recorded three times weekly by measuring the minor and major dimensions of the tumour and tumour volumes were calculated as 0.52 times (minor dimension)^2 times (major dimension). Tumour volumes were normalized to the initial volume and plotted versus time. FIG. 2 illustrates the growth curves for immunodeficient mice with NZM4 human tumour xenografts. Mice were either untreated (closed circles), treated with 2 Gray radiation alone (open circles) or treated with radiation combined with compound 3 (100 mg/kg per dose). […]
Structure (SMILES),AC50 ([5]; Homo sapiens),Activity [5],further results
COc1ccc(/C=C/c2nc(NCCCN(C)C)c3ccccc3n2)cc1 [(i)],,,"ability of mutant p53 protein to induce the cellular p21 gene ([1]; Saos-2 osteosarcoma cells): restored the ability of mutant p53 protein to induce the cellular p21 gene; potency ([1]; background statement, no test named): not very potent; suppression of tumour growth [2]: able to suppress the growth; suppression of tumour growth [3]: able to suppress the growth; chemical stability [4]: chemically unstable"
"CN(C)CCCNc1nc(-c2cc3ccccc3o2)nc2ccccc12.Cl.Cl [Compound 3, N^1-[2-(1-benzofuran-2-yl)-4-quinazolinyl]-N^3,N^3-dimethyl-1,3-propanediamine dihydrochloride]",8.5 µM,Active,"ability to restore p53 function [6]: able to restore p53 function; maximum tolerated intraperitoneal single dose (C57Bl mice; single intraperitoneal dose): 100 mg/kg; signs of toxicity (weight loss, ruffling of fur, behavioral changes) (C57Bl mice; single intraperitoneal dose of 100 mg/kg): No signs of toxicity; achieved plasma concentrations [7]: comparable to the AC-50% value; time to reach three times the initial tumour volume ([8]; 2 Gray radiation together with compound, 100 mg/kg per dose intraperitoneal on days 0, 1 and 2 after irradiation): 17 days; signs of toxicity ([8]; rag 1 mice, 2 Gray whole-body irradiation plus intraperitoneal compound immediately after and 1 and 2 days after): No signs of toxicity; tumour growth rate with drug alone compared with mice not treated with drug ([8]; rag1 mice, drug alone at the same schedule, no irradiation): identical rate"
"CN(C)CCCNc1nc(-c2cc3ccccc3o2)nc2ccc([N+](=O)[O-])cc12 [Compound 29, N^1-[2-(1-Benzofuran-2-yl)-6-nitro-4-quinazolinyl]-N^3,N^3-dimethyl-1,3-propanediamine]",12 µM,Active,
"CN(C)CCCNc1nc(-c2cc3ccccc3o2)nc2ccc(N)cc12.Cl.Cl [Compound 30, N^1-[2-(1-Benzofuran-2-yl)-N^4-[3-(dimethylamino)propyl]-4,6-quinazolinediaminedihydrochloride]",,,AC50 [5]: 9.5 µM
CN(C)CCCNc1nc(-c2cc3ccccc3o2)nc2ccc(N)cc12.Cl.Cl [Compound 30],,Active,
"CN(C)CCCNc1nc(-c2cc3ccccc3o2)nc2cc(C(F)(F)F)ccc12.Cl.Cl [Compound 35, N^1-[2-(1-Benzofuran-2-yl)-7-(trifluoromethyl)-4-quinazolinyl]-N^3,N^3-dimethyl-1,3-propanediamine dihydrochloride]",3.4 µM,Active,
"Cc1cccc2c(NCCCN(C)C)nc(-c3cc4ccccc4o3)nc12.Cl.Cl [Compound 45, N^1-[2-(1-Benzofuran-2-yl)-8-methyl-4-quinazolinyl]-N^3,N^3-dimethyl-1,3-propanediamine dihydrochloride]",5.8 µM,Active,
"Cc1ccc2c(N(C)CCC(C)N)nc(-c3cc4ccccc4o3)nc2c1C.Cl.Cl (centres unmarked) [Compound 58, N^1-[2-(1-Benzofuran-2-yl)-7,8-dimethyl-4-quinazolinyl]-3,N-dimethyl-1,3-propanediamine dihydrochloride]",2.7 µM,Active,
"Cc1c(-c2nc(NCCCN(C)C)c3ccccc3n2)oc2ccccc12.Cl.Cl [Compound 60, N^1,N^1-Dimethyl-N^3-[2-(3-methyl-1-benzofuran-2-yl)-4-quinazolinyl]-1,3-propanediamine dihydrochloride]",18 µM,Active,
"CN(C)CCCNc1nc(-c2cc3ccccc3s2)nc2ccccc12.Cl.Cl [Compound 75, N^1-[2-(1-Benzothien-2-yl)-4-quinazolinyl]-N^3,N^3-dimethyl-1,3-propanediamine dihydrochloride]",8 µM,Active,
"Cc1ccc2c(NCCC3CCCN3C)nc(-c3cc4ccccc4o3)nc2c1C.Cl.Cl (centres unmarked) [Compound 79, 2-(1-Benzofuran-2-yl)-7,8-dimethyl-N-[2-(1-methyl-2-pyrrolidinyl)ethyl]-4-quinazolinamine dihydrochloride]",7.5 µM,Active,
"CN(C)CCCNc1cc(-c2cc3ccccc3o2)nc2ccccc12.Cl.Cl [Compound 80, N^1-[2-(1-benzofuran-2-yl)-4-quinolinyl]-N^3,N^3-dimethyl-1,3-propanediamine dihydrochloride]",15 µM,Active,
